Tests used:
[1] = test system: Serotonin (5-HT) uptake by rat brain synaptosome; assay: Serotonin (5-HT) uptake inhibitory activity by rat brain synaptosome; assay type: biochemical; details: test compound 300 nM; rat frontal cortex crude synaptosome; tritium labeled 5-HT 8 nM
Experimental: Measurement of Serotonin (5-HT) Uptake Inhibitory Activity of a Test Compound by Rat Brain Synaptosome
Wistar male rats were decapitated, the brain was retrieved and frontal cortex was dissected out, and it was homogenized in 0.32 M sucrose solution of a weight 20 times of the weight of the tissue using a Potter type homogenizer.
5-HT uptake reaction was performed in a volume of 200 μl using a 96-well round bottom plate and pargyline (final concentration 10 μM) and sodium ascorbate (final concentration 0.2 mg/ml) were contained in the incubation buffer upon reaction and used.
Incubation buffer (total counting), non-labeled 5-HT (final concentration 10 μM, non-specific counting) and the diluted test compound (final concentration 300 nM) were added to each well. One-tenth quantity of the final volume of the synaptosome fraction was added and after preincubated at 37° C. for 10 minutes, tritium labeled 5-HT solution (final concentration 8 nM) was added and uptake reaction was started at 37° C. The uptake time was 10 minutes and the reaction was terminated by vacuum filtration through a 96-well fiber glass filter paper plate, and after the filter paper was washed with cold normal saline, it was dried enough and Microscint0 (Perkin-Elmer) was added to the filter and remaining radioactivity on the filter was measured.

[2] = biological target: Human recombinant dopamine D2 receptor (Homo sapiens (Human), UniProt P14416); details: forskolin stimulation; well without test compound = 100%; CHO/DHFR(-) cells
Experimental: Partial agonistic activity on dopamine D2 receptor using D2 receptor expression cells
Partial agonistic activity on dopamine D2 receptor was evaluated by quantitatively determining cyclic AMP production inhibitory effect of a test compound in dopamine D2 receptor expression cells in which adenosine 3′,5′-cyclic monophosphate (cyclic AMP) production was induced by forskolin stimulation.
Human recombinant dopamine D2 receptor expressing Chinese hamster ovary/DHFR(−) cells were cultured in a culture medium (Iscove's Modified Dulbecco's Medium (IMDM culture medium), 10% fetal bovine serum, 50 I.U./ml penicillin, 50 μg/ml streptomycin, 200 μg/ml geneticin, 0.1 mM sodium hypoxanthine, 16 μM thymidine) at 37° C. and 5% carbon dioxide condition. Cells were seeded at 10^4 cells/well on a 96-well microtiter plate coated with poly-L-lysine and grown under the same condition for 2 days. Each well was washed with 100 μl of a culture medium (IMDM culture medium, 0.1 mM sodium hypoxanthine, 16 μM thymidine).

Chain of Human recombinant dopamine D2 receptor (P14416 whole entry): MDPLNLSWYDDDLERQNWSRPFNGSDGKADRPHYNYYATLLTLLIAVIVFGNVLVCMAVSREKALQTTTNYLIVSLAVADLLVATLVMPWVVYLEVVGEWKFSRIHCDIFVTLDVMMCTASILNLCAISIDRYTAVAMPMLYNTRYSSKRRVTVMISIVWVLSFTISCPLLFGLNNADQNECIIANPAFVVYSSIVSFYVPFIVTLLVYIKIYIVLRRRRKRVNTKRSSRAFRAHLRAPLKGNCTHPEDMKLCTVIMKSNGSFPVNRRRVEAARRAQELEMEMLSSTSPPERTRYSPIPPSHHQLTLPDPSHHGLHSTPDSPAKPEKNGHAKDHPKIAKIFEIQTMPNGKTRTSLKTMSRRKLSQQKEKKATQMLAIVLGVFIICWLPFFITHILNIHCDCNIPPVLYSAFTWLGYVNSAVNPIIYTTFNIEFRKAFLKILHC

quantity of cyclic AMP as the maximum activity [2] | SMILES | Serotonin uptake inhibitory ratio (%)(300 nM) [1] [%]
– | O=c1ccc2ccc(OCCCN3CCN(c4cccc5sccc45)CC3)cc2[nH]1 [Example 7, 7-[3-(4-benzo[b]thiophen-4-yl-piperazin-1-yl)propoxy]-1H-quinolin-2-one] | 91.0
– | CCN1CCc2cc(OCCCN3CCN(c4cccc5sccc45)CC3)ccc2C1=O [Example 27, 6-[3-(4-benzo[b]thiophen-4-yl-piperazin-1-yl)propoxy]-2-ethyl-3,4-dihydro-2H-isoquinolin-1-one] | 94.0
– | CN1CCc2cc(OCCCN3CCN(c4cccc5sccc45)CC3)ccc2C1=O [Example 26, 6-[3-(4-benzo[b]thiophen-4-yl-piperazin-1-yl)propoxy]-2-methyl-3,4-dihydro-2H-isoquinolin-1-one] | 92.0
– | Cc1cc2ccc(OCCCN3CCN(c4cccc5sccc45)CC3)cc2[nH]c1=O [Example 5, 7-[3-(4-benzo[b]thiophen-4-yl-piperazin-1-yl)propoxy]-3-methyl-1H-quinolin-2-one] | 89.1
– | O=c1ccc2ccc(OCCCCN3CCN(c4cccc5sccc45)CC3)cc2[nH]1 [Example 1, 7-[4-(4-benzo[b]thiophen-4-yl-piperazin-1-yl)butoxy]-1H-quinolin-2-one] | 92.4
– | O=c1c2ccccc2ccn1CCCCN1CCN(c2cccc3sccc23)CC1 [Example 34, 2-[4-(4-benzo[b]thiophen-4-yl-piperazin-1-yl)butyl]-2H-isoquinolin-1-one] | 94.2
– | O=C1c2ccccc2CCN1CCCCCN1CCN(c2cccc3sccc23)CC1 [Example 24, 2-[5-(4-benzo[b]thiophen-4-yl-piperazin-1-yl)pentyl]-3,4-dihydro-2H-isoquinolin-1-one] | 97.5
– | O=c1[nH]ccc2cc(OCCCN3CCN(c4cccc5sccc45)CC3)ccc12 [Example 40, 6-[3-(4-benzo[b]thiophen-4-yl-piperazin-1-yl)propoxy]-2H-isoquinolin-1-one] | 91.6
– | O=C1NCCc2cc(OCCCN3CCN(c4cccc5sccc45)CC3)ccc21 [Example 25, 6-[3-(4-benzo[b]thiophen-4-yl-piperazin-1-yl)propoxy]-3,4-dihydro-2H-isoquinolin-1-one] | 91.9
– | Cc1cc(=O)[nH]c2cc(OCCCCN3CCN(c4cccc5sccc45)CC3)ccc12 [Example 4, 7-[4-(4-benzo[b]thiophen-4-yl-piperazin-1-yl)butoxy]-4-methyl-1H-quinolin-2-one] | 91.0
– | O=C1CCc2ccc(OC/C=C\CN3CCN(c4cccc5sccc45)CC3)cc2N1 [Example 13, 7-[4-(4-benzo[b]thiophen-4-yl-piperazin-1-yl)-(Z)-2-butenyloxy]-3,4-dihydro-1H-quinolin-2-one] | 77.0
– | O=c1[nH]c2ccccc2cc1OCCN1CCN(c2cccc3sccc23)CC1 [Example 2, 3-[2-(4-benzo[b]thiophen-4-yl-piperazin-1-yl)ethoxy]-1H-quinolin-2-one] | 78.8
about 10% | NCCc1ccc(O)c(O)c1 [dopamine] | –
– | O=C1CCc2ccc(OC/C=C/CN3CCN(c4cccc5sccc45)CC3)cc2N1 [Example 15, 7-[4-(4-benzo[b]thiophen-4-yl-piperazin-1-yl)-(E)-2-butenyloxy]-3,4-dihydro-1H-quinolin-2-one] | 87.2
– | O=C1CCc2ccc(OCCCN3CCN(c4cccc5sccc45)CC3)cc2N1 [Example 10, 7-[3-(4-benzo[b]thiophen-4-yl-piperazin-1-yl)propoxy]-3,4-dihydro-1H-quinolin-2-one] | 92.6
– | O=C1CCc2cc(OCCCCN3CCN(c4cccc5sccc45)CC3)ccc2N1 [Example 20, 6-[4-(4-benzo[b]thiophen-4-yl-piperazin-1-yl)butoxy]-3,4-dihydro-1H-quinolin-2-one] | 92.8
– | Cc1cc2ccc(OCCCCN3CCN(c4cccc5sccc45)CC3)cc2[nH]c1=O [Example 6, 7-[4-(4-benzo[b]thiophen-4-yl-piperazin-1-yl)butoxy]-3-methyl-1H-quinolin-2-one] | 91.3
– | CC1CC(=O)Nc2cc(OCCCCN3CCN(c4cccc5sccc45)CC3)ccc21 (stereo not shown) [Example 16, 7-[4-(4-benzo[b]thiophen-4-yl-piperazin-1-yl)butoxy]-4-methyl-3,4-dihydro-1H-quinolin-2-one] | 86.7
– | Cc1cc(=O)[nH]c2cc(OCCCN3CCN(c4cccc5sccc45)CC3)ccc12 [Example 3, 7-[3-(4-benzo[b]thiophen-4-yl-piperazin-1-yl)propoxy]-4-methyl-1H-quinolin-2-one] | 84.8

— patent USRE48059E1, “Piperazine-substituted benzothiophenes for treatment of mental disorders” (Otsuka Pharmaceutical Co., Ltd., priority 2005, dated 2020)
